Data reported in ChEMBL document CHEMBL4152360 (Bioorg Med Chem, 2018).

Experiments:
[1] = target: Vascular endothelial growth factor receptor 1 (Homo sapiens) (UniProt P17948); experiment: Inhibition of human VEGFR1 assessed as enzyme residual activity at 100 nM by radiometric filter binding assay relative to control
[2] = target: Serine/threonine-protein kinase 3 (Homo sapiens) (UniProt Q13188); experiment: Inhibition of human MST2 assessed as enzyme residual activity at 100 nM by radiometric filter binding assay relative to control
[3] = target: Serine/threonine-protein kinase Sgk1 (Homo sapiens) (UniProt O00141); experiment: Inhibition of human SGK1 assessed as enzyme residual activity at 100 nM by radiometric filter binding assay relative to control
[4] = target: Eukaryotic elongation factor 2 kinase (Homo sapiens) (UniProt O00418); experiment: Inhibition of human EF2K assessed as enzyme residual activity at 100 nM by radiometric filter binding assay relative to control
[5] = target: T1, Casein kinase II subunit alpha (Homo sapiens, UniProt P68400); experiment: Inhibition of human CK2alpha assessed as enzyme residual activity at 100 nM by radiometric filter binding assay relative to control
Target sequence in this assay (P68400 whole entry, looked up): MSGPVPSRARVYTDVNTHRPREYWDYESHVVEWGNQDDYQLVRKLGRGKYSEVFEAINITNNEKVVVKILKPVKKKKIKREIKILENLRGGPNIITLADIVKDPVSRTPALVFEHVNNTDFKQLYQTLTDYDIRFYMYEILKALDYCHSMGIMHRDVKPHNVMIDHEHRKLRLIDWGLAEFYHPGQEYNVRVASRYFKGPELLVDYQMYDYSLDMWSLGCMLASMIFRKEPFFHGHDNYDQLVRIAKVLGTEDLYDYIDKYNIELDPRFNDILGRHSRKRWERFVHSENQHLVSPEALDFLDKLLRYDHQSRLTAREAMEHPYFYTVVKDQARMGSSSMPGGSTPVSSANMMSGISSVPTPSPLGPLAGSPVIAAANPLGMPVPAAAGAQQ

[6] = target: Aurora kinase B (Homo sapiens) (UniProt Q96GD4); experiment: Inhibition of human AurB assessed as enzyme residual activity at 100 nM by radiometric filter binding assay relative to control
[7] = target: Homeodomain-interacting protein kinase 2 (Homo sapiens) (UniProt Q9H2X6); experiment: Inhibition of human HIPK2 assessed as enzyme residual activity at 100 nM by radiometric filter binding assay relative to control
[8] = target: Serine/threonine-protein kinase N2 (Homo sapiens) (UniProt Q16513); experiment: Inhibition of human PRK2 assessed as enzyme residual activity at 100 nM by radiometric filter binding assay relative to control
[9] = target: High affinity nerve growth factor receptor (Homo sapiens) (UniProt P04629); experiment: Inhibition of human TRKA assessed as enzyme residual activity at 100 nM by radiometric filter binding assay relative to control
[10] = target: MAP/microtubule affinity-regulating kinase 3 (Homo sapiens) (UniProt P27448); experiment: Inhibition of human MARK3 assessed as enzyme residual activity at 100 nM by radiometric filter binding assay relative to control
[11] = target: T1, Casein kinase II subunit alpha; experiment: Displacement of ARC-1504/ARC-1513-5O from CK2alpha (unknown origin) (1 to 335 residues) assessed as photoluminescence lifetime using non-deoxygenated solution after 15 to 60 mins by luminescence assay
Target sequence in this assay (P68400 whole entry, looked up): as above

[12] = target: T1, Casein kinase II subunit alpha; experiment: Displacement of ARC-1504/ARC-1513-5O from CK2alpha (unknown origin) (1 to 335 residues) after 15 to 60 mins by luminescence assay
Target sequence in this assay (P68400 whole entry): as the sequence (P68400 whole entry, looked up) above

[13] = target: Calcium/calmodulin-dependent protein kinase type 1 (Homo sapiens) (UniProt Q14012); experiment: Inhibition of human CaMK1alpha assessed as enzyme residual activity at 100 nM by radiometric filter binding assay relative to control
[14] = target: SRSF protein kinase 1 (Homo sapiens) (UniProt Q96SB4); experiment: Inhibition of human SRPK1 assessed as enzyme residual activity at 100 nM by radiometric filter binding assay relative to control
[15] = target: Tyrosine-protein kinase SYK (Homo sapiens) (UniProt P43405); experiment: Inhibition of human SYK assessed as enzyme residual activity at 100 nM by radiometric filter binding assay relative to control
[16] = target: Serine/threonine-protein kinase Nek6 (Homo sapiens) (UniProt Q9HC98); experiment: Inhibition of human NEK6 assessed as enzyme residual activity at 100 nM by radiometric filter binding assay relative to control
[17] = target: Serine/threonine-protein kinase Chk2 (Homo sapiens) (UniProt O96017); experiment: Inhibition of human CHK2 assessed as enzyme residual activity at 100 nM by radiometric filter binding assay relative to control
[18] = target: Ribosomal protein S6 kinase alpha-1 (Homo sapiens) (UniProt Q15418); experiment: Inhibition of human RSK1 assessed as enzyme residual activity at 100 nM by radiometric filter binding assay relative to control
[19] = target: Proto-oncogene tyrosine-protein kinase Src (Homo sapiens) (UniProt P12931); experiment: Inhibition of human SRC assessed as enzyme residual activity at 100 nM by radiometric filter binding assay relative to control
Homo sapiens = species: Homo sapiens; experiment: Inhibition of human PKA assessed as enzyme residual activity at 100 nM by radiometric filter binding assay relative to control
[20] = target: Mitogen-activated protein kinase kinase kinase 11 (Homo sapiens) (UniProt Q16584); experiment: Inhibition of human MLK3 assessed as enzyme residual activity at 100 nM by radiometric filter binding assay relative to control
[21] = target: Dual specificity mitogen-activated protein kinase kinase 1 (Homo sapiens) (UniProt Q02750); experiment: Inhibition of human MKK1 assessed as enzyme residual activity at 100 nM by radiometric filter binding assay relative to control
[22] = target: Serine/threonine-protein kinase D1 (Homo sapiens) (UniProt Q15139); experiment: Inhibition of human PKD1 assessed as enzyme residual activity at 100 nM by radiometric filter binding assay relative to control
[23] = target: Mitogen-activated protein kinase 8 (Homo sapiens) (UniProt P45983); experiment: Inhibition of human JNK1 assessed as enzyme residual activity at 100 nM by radiometric filter binding assay relative to control
[24] = target: Dual specificity protein kinase TTK (Homo sapiens) (UniProt P33981); experiment: Inhibition of human TTK assessed as enzyme residual activity at 100 nM by radiometric filter binding assay relative to control
[25] = target: Serine/threonine-protein kinase PLK1 (Homo sapiens) (UniProt P53350); experiment: Inhibition of human PLK1 assessed as enzyme residual activity at 100 nM by radiometric filter binding assay relative to control
[26] = target: Protein kinase C alpha type (Homo sapiens) (UniProt P17252); experiment: Inhibition of human PKCalpha assessed as enzyme residual activity at 100 nM by radiometric filter binding assay relative to control
[27] = target: Serine/threonine-protein kinase STK11 (Homo sapiens) (UniProt Q15831); experiment: Inhibition of human LKB1 assessed as enzyme residual activity at 100 nM by radiometric filter binding assay relative to control
[28] = target: RAC-alpha serine/threonine-protein kinase (Homo sapiens) (UniProt P31749); experiment: Inhibition of human PKBa assessed as enzyme residual activity at 100 nM by radiometric filter binding assay relative to control
[29] = target: Casein kinase I isoform delta (Homo sapiens) (UniProt P48730); experiment: Inhibition of human CK1delta assessed as enzyme residual activity at 100 nM by radiometric filter binding assay relative to control
[30] = target: Mitogen-activated protein kinase kinase kinase 7 (Homo sapiens) (UniProt O43318); experiment: Inhibition of human TAK1 assessed as enzyme residual activity at 100 nM by radiometric filter binding assay relative to control
[31] = target: Tyrosine-protein kinase BTK (Homo sapiens) (UniProt Q06187); experiment: Inhibition of human BTK assessed as enzyme residual activity at 100 nM by radiometric filter binding assay relative to control
[32] = target: Dual specificity tyrosine-phosphorylation-regulated kinase 1A (Homo sapiens) (UniProt Q13627); experiment: Inhibition of human DYRK1alpha assessed as enzyme residual activity at 100 nM by radiometric filter binding assay relative to control

Serine/threonine-protein kinase D1 (Homo sapiens), sequence (Q15139 whole entry, looked up): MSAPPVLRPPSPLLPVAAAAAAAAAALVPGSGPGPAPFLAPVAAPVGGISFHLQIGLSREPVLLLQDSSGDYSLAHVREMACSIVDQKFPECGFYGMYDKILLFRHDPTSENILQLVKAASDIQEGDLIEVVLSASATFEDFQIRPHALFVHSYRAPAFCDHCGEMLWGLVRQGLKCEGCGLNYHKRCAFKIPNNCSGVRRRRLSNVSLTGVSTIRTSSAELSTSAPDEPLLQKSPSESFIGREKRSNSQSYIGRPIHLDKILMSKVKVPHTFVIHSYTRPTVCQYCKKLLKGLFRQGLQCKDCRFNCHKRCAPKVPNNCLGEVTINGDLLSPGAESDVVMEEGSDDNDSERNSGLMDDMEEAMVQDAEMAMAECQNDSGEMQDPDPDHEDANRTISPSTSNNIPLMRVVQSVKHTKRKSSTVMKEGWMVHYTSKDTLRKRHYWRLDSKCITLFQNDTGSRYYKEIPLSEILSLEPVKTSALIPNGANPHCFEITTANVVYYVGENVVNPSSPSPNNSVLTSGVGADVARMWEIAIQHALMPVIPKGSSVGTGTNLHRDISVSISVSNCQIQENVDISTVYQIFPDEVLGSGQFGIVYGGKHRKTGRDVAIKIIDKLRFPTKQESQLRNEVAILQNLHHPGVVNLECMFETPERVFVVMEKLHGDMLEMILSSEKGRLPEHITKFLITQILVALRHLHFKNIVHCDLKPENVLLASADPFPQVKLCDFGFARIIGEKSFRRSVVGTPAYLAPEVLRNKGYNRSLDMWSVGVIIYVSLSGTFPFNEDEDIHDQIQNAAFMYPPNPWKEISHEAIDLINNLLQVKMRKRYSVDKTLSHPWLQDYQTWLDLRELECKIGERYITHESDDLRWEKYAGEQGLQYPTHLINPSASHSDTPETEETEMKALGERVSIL
Serine/threonine-protein kinase STK11 (Homo sapiens), sequence (Q15831 whole entry): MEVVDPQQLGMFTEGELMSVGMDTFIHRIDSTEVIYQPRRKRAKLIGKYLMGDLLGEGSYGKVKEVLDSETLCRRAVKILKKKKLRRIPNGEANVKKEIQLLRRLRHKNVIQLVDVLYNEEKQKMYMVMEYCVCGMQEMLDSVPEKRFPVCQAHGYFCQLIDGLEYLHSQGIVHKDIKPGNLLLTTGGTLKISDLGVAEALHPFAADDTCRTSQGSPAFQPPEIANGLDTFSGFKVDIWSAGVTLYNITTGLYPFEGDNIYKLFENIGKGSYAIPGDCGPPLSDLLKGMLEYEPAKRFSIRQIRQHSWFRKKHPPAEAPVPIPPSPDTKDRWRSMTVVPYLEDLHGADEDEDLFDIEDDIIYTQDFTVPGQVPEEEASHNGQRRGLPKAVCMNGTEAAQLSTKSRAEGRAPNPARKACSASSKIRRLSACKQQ
Mitogen-activated protein kinase kinase kinase 7 (Homo sapiens), sequence (O43318 whole entry): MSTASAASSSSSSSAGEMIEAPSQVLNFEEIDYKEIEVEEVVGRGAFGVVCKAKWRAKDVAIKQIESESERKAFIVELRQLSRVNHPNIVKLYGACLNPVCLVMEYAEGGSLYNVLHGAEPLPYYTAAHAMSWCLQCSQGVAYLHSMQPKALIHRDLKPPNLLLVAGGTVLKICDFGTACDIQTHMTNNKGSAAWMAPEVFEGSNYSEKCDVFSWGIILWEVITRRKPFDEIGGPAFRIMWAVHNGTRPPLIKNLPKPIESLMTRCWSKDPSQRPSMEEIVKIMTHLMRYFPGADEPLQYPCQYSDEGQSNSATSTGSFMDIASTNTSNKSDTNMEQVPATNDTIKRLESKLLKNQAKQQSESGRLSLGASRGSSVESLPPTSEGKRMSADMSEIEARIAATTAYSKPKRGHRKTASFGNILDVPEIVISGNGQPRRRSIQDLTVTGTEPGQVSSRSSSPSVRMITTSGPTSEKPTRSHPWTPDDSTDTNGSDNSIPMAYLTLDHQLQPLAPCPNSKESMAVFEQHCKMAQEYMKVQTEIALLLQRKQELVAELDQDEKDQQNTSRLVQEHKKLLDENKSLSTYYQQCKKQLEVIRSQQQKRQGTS
Calcium/calmodulin-dependent protein kinase type 1 (Homo sapiens), sequence (Q14012 whole entry, looked up): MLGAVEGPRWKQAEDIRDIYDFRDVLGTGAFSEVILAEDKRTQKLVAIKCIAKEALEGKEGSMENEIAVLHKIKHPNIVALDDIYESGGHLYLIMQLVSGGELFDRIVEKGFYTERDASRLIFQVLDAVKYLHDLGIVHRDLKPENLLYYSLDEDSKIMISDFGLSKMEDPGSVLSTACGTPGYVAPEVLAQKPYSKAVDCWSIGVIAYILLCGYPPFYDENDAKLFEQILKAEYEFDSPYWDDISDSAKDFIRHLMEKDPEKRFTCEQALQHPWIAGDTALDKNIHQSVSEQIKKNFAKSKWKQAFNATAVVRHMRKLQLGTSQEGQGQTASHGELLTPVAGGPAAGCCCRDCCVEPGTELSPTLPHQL
Aurora kinase B (Homo sapiens), sequence (Q96GD4 whole entry): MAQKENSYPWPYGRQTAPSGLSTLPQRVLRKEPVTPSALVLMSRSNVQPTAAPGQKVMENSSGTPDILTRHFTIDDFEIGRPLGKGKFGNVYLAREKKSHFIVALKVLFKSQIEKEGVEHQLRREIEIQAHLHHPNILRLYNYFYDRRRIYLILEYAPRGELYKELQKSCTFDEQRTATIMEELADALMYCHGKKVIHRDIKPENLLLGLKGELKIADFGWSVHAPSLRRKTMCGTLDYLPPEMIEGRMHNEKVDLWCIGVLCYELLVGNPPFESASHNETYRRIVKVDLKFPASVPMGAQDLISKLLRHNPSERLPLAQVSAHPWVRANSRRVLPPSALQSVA
Tyrosine-protein kinase BTK (Homo sapiens), sequence (Q06187 whole entry): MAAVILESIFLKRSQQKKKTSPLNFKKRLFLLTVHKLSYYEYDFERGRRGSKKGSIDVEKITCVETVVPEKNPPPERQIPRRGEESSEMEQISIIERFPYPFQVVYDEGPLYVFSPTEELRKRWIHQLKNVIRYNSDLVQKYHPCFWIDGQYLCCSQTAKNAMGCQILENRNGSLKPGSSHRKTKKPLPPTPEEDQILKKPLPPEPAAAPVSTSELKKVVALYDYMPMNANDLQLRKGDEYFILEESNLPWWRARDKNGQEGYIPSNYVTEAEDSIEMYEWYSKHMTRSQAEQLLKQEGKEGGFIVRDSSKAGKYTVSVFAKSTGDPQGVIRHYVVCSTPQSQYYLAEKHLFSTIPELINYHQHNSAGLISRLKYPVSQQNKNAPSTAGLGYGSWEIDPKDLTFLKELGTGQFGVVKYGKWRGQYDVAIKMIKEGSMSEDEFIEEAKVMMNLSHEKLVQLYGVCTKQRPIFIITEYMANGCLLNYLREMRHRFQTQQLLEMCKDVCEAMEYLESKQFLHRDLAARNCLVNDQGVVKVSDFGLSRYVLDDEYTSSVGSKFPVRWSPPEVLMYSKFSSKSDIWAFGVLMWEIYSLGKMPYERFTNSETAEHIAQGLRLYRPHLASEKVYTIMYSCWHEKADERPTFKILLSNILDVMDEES
Serine/threonine-protein kinase N2 (Homo sapiens), sequence (Q16513 whole entry, looked up): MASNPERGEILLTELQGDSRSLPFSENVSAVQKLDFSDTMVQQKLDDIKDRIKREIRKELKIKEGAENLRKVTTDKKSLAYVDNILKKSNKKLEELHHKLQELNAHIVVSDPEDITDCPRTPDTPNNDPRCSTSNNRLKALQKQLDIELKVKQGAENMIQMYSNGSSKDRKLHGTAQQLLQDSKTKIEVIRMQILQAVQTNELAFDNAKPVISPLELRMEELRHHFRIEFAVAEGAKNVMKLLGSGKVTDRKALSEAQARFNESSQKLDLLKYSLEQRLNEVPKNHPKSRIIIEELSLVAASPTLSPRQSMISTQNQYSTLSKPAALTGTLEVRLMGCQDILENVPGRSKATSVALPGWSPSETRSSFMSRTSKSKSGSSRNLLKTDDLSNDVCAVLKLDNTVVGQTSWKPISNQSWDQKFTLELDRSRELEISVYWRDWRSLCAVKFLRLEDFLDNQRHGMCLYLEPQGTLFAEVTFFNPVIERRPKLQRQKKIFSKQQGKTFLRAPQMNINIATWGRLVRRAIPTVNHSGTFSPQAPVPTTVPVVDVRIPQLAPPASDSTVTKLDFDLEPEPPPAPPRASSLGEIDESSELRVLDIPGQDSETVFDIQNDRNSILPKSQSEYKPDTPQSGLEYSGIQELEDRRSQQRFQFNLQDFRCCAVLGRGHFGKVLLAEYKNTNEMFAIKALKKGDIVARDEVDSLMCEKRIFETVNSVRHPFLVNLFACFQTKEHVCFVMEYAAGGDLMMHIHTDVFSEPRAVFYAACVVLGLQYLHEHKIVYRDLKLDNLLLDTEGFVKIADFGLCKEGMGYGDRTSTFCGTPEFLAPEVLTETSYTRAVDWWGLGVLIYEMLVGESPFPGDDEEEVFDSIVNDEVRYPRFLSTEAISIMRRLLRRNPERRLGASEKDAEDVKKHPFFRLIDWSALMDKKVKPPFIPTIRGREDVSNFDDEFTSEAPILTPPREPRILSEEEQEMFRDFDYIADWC

Activity [1]: 87% | Activity [2]: 101% | Activity [3]: 97% | Activity [4]: 106% | Activity [5]: 1.9% | Activity [6]: 129% | Activity [7]: 23% | Activity [8]: 109% | Activity [9]: 88% | Activity [10]: 99% | Time [11]: 82 microsec | Kd [12]: 0.58 nM | Activity [13]: 111% | Activity [14]: 69% | Activity [15]: 122% | Activity [16]: 103% | Activity [17]: 96% | Activity [18]: 101% | Activity [19]: 103% | Activity (Homo sapiens): 92% | Activity [20]: 69% | Activity [21]: 88% | Activity [22]: 117% | Activity [23]: 86% | Activity [24]: 85% | Activity [25]: 83% | Activity [26]: 95% | Activity [27]: 107% | Activity [28]: 105% | Activity [29]: 107% | Activity [30]: 62% | Activity [31]: 99% | Activity [32]: 11.5%
SMILES: NCCCC[C@@H](NC(=O)[C@@H](CC(=O)O)NC(=O)[C@@H](CC(=O)O)NC(=O)[C@@H](CC(=O)O)NC(=O)[C@@H](CC(=O)O)NC(=O)[C@@H](CC(=O)O)NC(=O)[C@@H](CC(=O)O)NC(=O)CCCCCNC(=O)CCC(=O)Nc1ncc(-c2ccc(C(=O)O)cc2)s1)C(=O)O
